Measurements: patent US12441733B2, “Substituted 2,4-dioxotetrahydropyrimidines as intermediates in the synthesis of bruton's tyrosine kinase inhibitors” (Novartis AG, priority 2018, dated 2025)

Molecular target: T1, IKZF3-GFP (Homo sapiens, UniProt Q96SW2+Q9UKT9)
T1 construct: expressed in transfected cells; host or cells: HEK293A (Invitrogen R70507), lentiviral transduction with pLenti6-IKZF3-GFP-Ires-RFP, blasticidin selection
Experiment: IKZF3-GFP protein abundance flow cytometry assay in HEK293A cells
Assay type: cell-based
Settings: HEK293A IKZF3-GFP-iresRFP cells, 24 h; for DC50: GFP signal by flow cytometry; for IKZF3 deg Amax: % protein remaining at maximum degradation
Protocol: BTK-GFP and IKZF3-GFP protein abundance flow cytometry assay in HEK293A cells:
Degradation of BTK or IKZF3 was measured in HEK293A cells (Invitrogen R70507) expressing either BTK-GFP and RFP or IKZF3-GFP and RFP from a stably integrated bicistronic BTK-GFP-iresRFP or IKZF3-GFP-iresRFP construct, respectively. Reduction of the GFP signal measured by flow cytometry served as readout for BTK or IKZF3 degradation after degrader treatment.
By analogy the bicistronic pLenti6-IKZF3-GFP-iresRFP was engineered by gateway cloning of IKZF3 from a pENTR221-IKZF3(STOP-Leu) construct into the previously described pLenti6-DEST-GFP-Ires-RFP vector using the LR Clonase kit (Invitrogen 11791-019) according to the manufacturer's manual. All vectors described have been sequenced for verification.
ii) Engineering of Stably Expressing 293A BTK-GFP-Ires-RFP and IKZF3-GFP-Ires-RFP Sensor Cells
293A BTK-GFP-Ires-RFP and IKZF3-GFP-ires-RFP sensor cells were generated by lentiviral vector transduction using the pLenti6-BTK-GFP-Ires-RFP or pLenti6-IKZF3-GFP-Ires-RFP sensor construct described before. Lentiviral particles were produced in HEK293FT cells (Invitrogen R70007) by co-transfection of 500 ng pLenti6-BTK-GFP-ires-RFP or pLenti6-IKZF3-GFP-Ires-RFP, 500 ng delta8.71 and 200 ng pVSVG diluted in 100 μl OptiMEM serum free medium (Invitrogen #11058-021) that was mixed after 5 min preincubation with 3 μl of Lipofectamine2000 (Invitrogen #11668-019) in 97 μl OptiMEM serum free medium. The mix was incubated for another 20 min at RT and then added on 1 ml of a freshly prepared suspension of HEK293FT cells in a well of a 6-well plate (concentration 1.2×10^6 cells/ml). 1 day after transfection, the medium was replaced with 1.5 ml of complete growth medium (DMEM high Glucose+10% FCS+1% L-Glutamine+1% NEAA+1% NaPyr.). 48 h post transfection supernatant containing viral transducing particles was collected and frozen at −80° C.
Two days before transduction with viral particles 1×10^5 HEK293A cells (Invitrogen R70507) were seeded in 2 ml growth medium in a well of a 6-well plate. Infection was performed with 90 μl of collected supernatant containing viral transducing particles in 1 ml medium including 8 μg/ml polybrene. 24 h post infection, stably transfected cells were selected with blasticidin at a concentration of 8 μg/ml.
Iii) Quantitative BTK-GFP and IKZF3-GFP Abundance Measurements
Stable HEK293A-BTK-GFP-iresRFP cells were maintained in complete growth medium (DMEM high Glucose+10% FCS+1% L-Glutamine+1% NEAA+1% NaPyr.) with passaging performed twice per week. On Day 0, HEK293A-BTK-GFP-iresRFP or HEK293A-IKZF3-GFP-iresRFP and HEK293A-iresRFP cells were seeded at 10,000 cells/well in a 96-well microtiter plate in 260 μl complete medium. On Day 1, cells were treated in duplicate with 10-point 1:3 dilution series of compound using the HP D300 Digital Dispenser (Tecan). DMSO concentrations were normalized across the plate to 0.1%. On Day 2, after 24 h of incubation at 37° C., treatment media was discarded, cells rinsed with 100 μl/well PBS and then detached using 40 μl trypsin/well for 5 min. Trypsin was neutralized with 100 μl/well PBS+20% FCS). Flow cytometry was performed on the samples using the BD FACS CANTO II (Becton Dickinson). Cell identification was then performed using forward (FSC) vs. side scatter (SSC) plots. […] Median GFP values for 5,000 single cells are used to determine BTK levels. Median GFP values from HEK293A-iresRFP are used as a background signal and thus defining 0% BTK signal. Median GFP values from DMSO treated HEK293A-BTK-GFP-iresRFP or HEK293A-IKZF3-GFP-iresRFP are used to define 100% BTK signal for subsequent DC50 curves (concentration at 50% BTK degradation).

T1 sequence (Q9UKT9 whole entry): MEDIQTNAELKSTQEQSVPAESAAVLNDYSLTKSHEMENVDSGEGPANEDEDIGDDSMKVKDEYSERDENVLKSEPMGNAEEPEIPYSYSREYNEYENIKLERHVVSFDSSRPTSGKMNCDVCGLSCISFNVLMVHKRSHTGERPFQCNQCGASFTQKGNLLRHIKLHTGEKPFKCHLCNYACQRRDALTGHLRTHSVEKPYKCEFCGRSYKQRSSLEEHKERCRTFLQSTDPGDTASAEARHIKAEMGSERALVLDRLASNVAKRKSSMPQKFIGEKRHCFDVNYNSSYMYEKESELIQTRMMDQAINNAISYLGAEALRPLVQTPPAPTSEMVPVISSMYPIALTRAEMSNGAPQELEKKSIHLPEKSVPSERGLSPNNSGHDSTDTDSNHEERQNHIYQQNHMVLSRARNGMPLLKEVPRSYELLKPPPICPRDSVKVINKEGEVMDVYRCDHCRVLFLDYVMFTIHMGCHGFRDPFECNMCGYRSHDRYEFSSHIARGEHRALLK
T1 sequence (Q96SW2 whole entry): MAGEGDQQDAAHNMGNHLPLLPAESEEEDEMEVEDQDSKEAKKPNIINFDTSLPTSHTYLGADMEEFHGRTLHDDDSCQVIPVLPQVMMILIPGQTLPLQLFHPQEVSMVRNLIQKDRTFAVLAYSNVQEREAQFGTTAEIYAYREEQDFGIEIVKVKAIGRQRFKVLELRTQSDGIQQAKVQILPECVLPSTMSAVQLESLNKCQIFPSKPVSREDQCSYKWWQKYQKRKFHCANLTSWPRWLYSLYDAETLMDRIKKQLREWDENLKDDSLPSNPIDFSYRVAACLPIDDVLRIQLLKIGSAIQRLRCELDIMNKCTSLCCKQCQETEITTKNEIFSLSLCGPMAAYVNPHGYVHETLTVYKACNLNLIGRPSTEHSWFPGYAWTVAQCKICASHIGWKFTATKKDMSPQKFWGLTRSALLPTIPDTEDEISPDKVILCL
T1 sequence (Q16531 whole entry partner): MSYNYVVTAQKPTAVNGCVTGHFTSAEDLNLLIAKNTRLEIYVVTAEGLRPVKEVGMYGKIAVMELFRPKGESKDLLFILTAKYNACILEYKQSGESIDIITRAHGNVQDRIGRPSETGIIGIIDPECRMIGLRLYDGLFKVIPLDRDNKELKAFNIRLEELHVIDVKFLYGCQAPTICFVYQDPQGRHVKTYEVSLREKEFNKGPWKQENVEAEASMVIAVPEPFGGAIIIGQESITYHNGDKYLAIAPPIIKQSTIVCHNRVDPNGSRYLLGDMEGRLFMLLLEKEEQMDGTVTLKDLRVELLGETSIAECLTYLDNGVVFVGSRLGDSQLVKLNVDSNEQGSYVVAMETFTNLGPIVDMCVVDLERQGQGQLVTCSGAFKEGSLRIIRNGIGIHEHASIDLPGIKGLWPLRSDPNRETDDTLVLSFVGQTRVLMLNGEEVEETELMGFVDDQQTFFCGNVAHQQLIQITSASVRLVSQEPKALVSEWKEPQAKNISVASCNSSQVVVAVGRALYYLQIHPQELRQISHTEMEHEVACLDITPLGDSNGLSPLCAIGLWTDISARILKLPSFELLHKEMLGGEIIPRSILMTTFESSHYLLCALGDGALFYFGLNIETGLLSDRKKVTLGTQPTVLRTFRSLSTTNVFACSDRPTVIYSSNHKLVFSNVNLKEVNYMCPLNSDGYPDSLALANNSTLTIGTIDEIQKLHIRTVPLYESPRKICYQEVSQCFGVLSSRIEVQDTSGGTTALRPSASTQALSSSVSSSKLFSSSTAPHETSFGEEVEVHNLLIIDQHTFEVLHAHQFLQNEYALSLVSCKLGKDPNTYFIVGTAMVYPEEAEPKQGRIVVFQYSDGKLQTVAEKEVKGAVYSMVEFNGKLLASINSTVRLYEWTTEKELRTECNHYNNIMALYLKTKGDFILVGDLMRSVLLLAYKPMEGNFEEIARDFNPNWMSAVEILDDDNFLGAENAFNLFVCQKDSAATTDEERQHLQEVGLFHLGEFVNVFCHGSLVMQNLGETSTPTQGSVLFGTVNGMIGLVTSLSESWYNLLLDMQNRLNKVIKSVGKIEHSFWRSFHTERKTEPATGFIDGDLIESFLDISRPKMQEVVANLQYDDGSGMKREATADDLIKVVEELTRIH

SMILES | DC50 | IKZF3 deg Amax
Cc1c(NC(=O)c2ccc(C(C)(C)O)cc2F)cc(F)cc1-c1ncnc2[nH]c(-c3ccc(CN4CCC5(CC4)CCN(C(=O)c4ccc(F)c(N6CCC(=O)NC6=O)c4)CC5)cc3)cc12 [Compound 14, N-(3-(6-(4-((9-(3-(2,4-Dioxotetrahydropyrimidin-1(2H)-yl)-4-fluorobenzoyl)-3,9-diazaspiro[5.5]undecan-3-yl)methyl)phenyl)-7H-pyrrolo[2.3-d]pyrimidin-4-yl)-5-fluoro-2-methylphenyl)-2-fluoro-4-(2-hydroxypropan-2-yl)benzamide] | > 1.1 µM | 100.2%
COc1ccc(C(=O)N2CCC3(CCN(Cc4ccc(-c5cc6c(-c7cc(F)cc(NC(=O)c8ccc(C(C)(C)O)cc8F)c7C)ncnc6[nH]5)cc4)CC3)CC2)cc1N1CCC(=O)NC1=O [Compound 9, N-(3-(6-(4-((9-(3-(2,4-Dioxotetrahydropyrimidin-1(2H)-yl)-4-methoxybenzoyl)-3,9-diazaspiro[5.5]undecan-3-yl)methyl)phenyl)-7H-pyrrolo[2.3-d]pyrimidin-4-yl)-5-fluoro-2-methylphenyl)-2-fluoro-4-(2-hydroxypropan-2-yl)benzamide] | > 7.8 µM | 99.1%
COc1ccc(C(=O)N2CCC(OC3CCN(CCc4ccc(-c5cc6c(-c7cc(F)cc(NC(=O)c8ccc(C(C)(C)O)cc8F)c7C)ncnc6[nH]5)cc4)CC3)CC2)cc1N1CCC(=O)NC1=O [Compound 34, N-(3-(6-(4-(2-(4-((1-(3-(2,4-Dioxotetrahydropyrimidin-1(2H)-yl)-4-methoxybenzoyl)piperidin-4-yl)oxyl)piperidin-1-yl)ethyl)phenyl)-7H-pyrrolo[2,3-d]pyrimidin-4-yl)-5-fluoro-2-methylphenyl)-2-fluoro-4-(2-hydroxypropan-2-yl)benzamide] | > 10 µM | 94.7%
COc1ccc(C(=O)N2CCC(CN3CCC(Oc4ccc(-c5cc6c(-c7cc(F)cc(NC(=O)c8ccc(C(C)(C)O)cc8F)c7C)ncnc6[nH]5)cc4)CC3)CC2)cc1N1CCC(=O)NC1=O [Compound 19, N-(3-(6-(4-((1-((1-(3-(2,4-Dioxotetrahydropyrimidin-1(2H)-yl)-4-methoxybenzoyl)piperidin-4-yl)methyl)piperidin-4-yl)oxyl)phenyl)-7H-pyrrolo[2,3-d]pyrimidin-4-yl)-5-fluoro-2-methylphenyl)-2-fluoro-4-(2-hydroxypropan-2-yl)benzamide] | > 10 µM | 100.5%

Now from value to compound:

DC50 | IKZF3 deg Amax | SMILES
> 1.1 µM | 102.2% | Cc1ccc(C(=O)N2CCC3(CCN(Cc4ccc(-c5cc6c(-c7cc(F)cc(NC(=O)c8ccc(C(C)(C)O)cc8F)c7C)ncnc6[nH]5)cc4)CC3)CC2)cc1N1CCC(=O)NC1=O [Compound 27, N-(3-(6-(4-((9-(3-(2,4-Dioxotetrahydropyrimidin-1(2H)-yl)-4-methylbenzoyl)-3,9-diazaspiro[5.5]undecan-3-yl)methyl)phenyl)-7H-pyrrolo[2,3-d]pyrimidin-4-yl)-5-fluoro-2-methylphenyl)-2-fluoro-4-(2-hydroxypropan-2-yl)benzamide]
> 1.1 µM | 93.3% | COc1ccc(C(=O)N2CCC3(CC2)CCN(C(C)(C)Cc2ccc(-c4cc5c(-c6cc(F)cc(NC(=O)c7ccc(C(C)(C)O)cc7F)c6C)ncnc5[nH]4)cc2)CC3)cc1N1CCC(=O)NC1=O [Compound 20, N-(3-(6-(4-(2-(9-(3-(2,4-Dioxotetrahydropyrimidin-1(2H)-yl)-4-methoxybenzoyl)-3,9-diazaspiro[5.5]undecan-3-yl)-2-methylpropyl)phenyl)-7H-pyrrolo[2,3-d]pyrimidin-4-yl)-5-fluoro-2-methylphenyl)-2-fluoro-4-(2-hydroxypropan-2-yl)benzamide]
